In ChEMBL document CHEMBL5584281, “Toward Precision Oncology: The Role of TPD in Targeting CDK2 and Beyond” (ACS Med Chem Lett, 2024):

Biological target: Cyclin-dependent kinase 2 (Homo sapiens, UniProt P24941)
Assay: Inhibition of CDK2 in human OVCAR-3 cells assessed as inhibition of retinoblastoma protein phosphorylation at S807/811 residues measured after 24 hrs by TR-FRET assay
Type: cell-based

Row | SMILES | IC50 [nM]
1 | O=C1CCC(N2C(=O)c3cc(F)c(N4CC5(CN(Cc6cccc(S(=O)(=O)N7CCC(Nc8ncc(C(F)(F)F)c(-c9cnn(CC(F)(F)F)c9)n8)CC7)c6)C5)C4)cc3C2=O)C(=O)N1 (stereo not drawn) | < 100
2 | O=C1CCC(N2Cc3ccc(N4CCC5(CCN(Cc6cccc(S(=O)(=O)N7CCC(Nc8ncc(C(F)(F)F)c(-c9cnn(CC(F)(F)F)c9)n8)CC7)c6)CC5)CC4)cc3C2=O)C(=O)N1 (stereo not drawn) | < 100
3 | Cn1nc(N2CCC(=O)NC2=O)c2cc(C3CCN(Cc4cccc(S(=O)(=O)N5CCC(Nc6ncc(C(F)(F)F)c(-c7cnn(CC(F)(F)F)c7)n6)CC5)c4)CC3)ccc21 | < 100
4 | Cn1nc(N2CCC(=O)NC2=O)c2ccc(C3CCN(CC4CCN(S(=O)(=O)N5CCC(Nc6ncc(C(F)(F)F)c(-c7cnn(CC(F)(F)F)c7)n6)CC5)CC4)CC3)cc21 | < 100
5 | O=C1CCC(N2C(=O)c3cc(F)c(N4CCN(Cc5cccc(S(=O)(=O)N6CCC(Nc7ncc(Cl)c(-c8cnn(CC(F)(F)F)c8)n7)CC6)c5)CC4)cc3C2=O)C(=O)N1 (stereo not drawn) | < 100
6 | O=C1CCC(N2Cc3cc(C4CN(Cc5cccc(S(=O)(=O)N6CCC(Nc7ncc(C(F)(F)F)c(-c8cnn(CC(F)(F)F)c8)n7)CC6)c5)C4)ccc3C2=O)C(=O)N1 (stereo not drawn) | < 100
7 | Cn1nc(N2CCC(=O)NC2=O)c2ccc(C3CCN(Cc4cccc(S(=O)(=O)N5CCC(Nc6ncc(C(F)(F)F)c(-c7cnn(-c8ccccc8F)c7)n6)CC5)c4)CC3)cc21 | ≤ 100
8 | O=C1CCC(c2ccc(N3CCN(Cc4cccc(S(=O)(=O)N5CCC(Nc6ncc(C(F)(F)F)c(-c7cnn(CC(F)(F)F)c7)n6)CC5)c4)CC3)cc2)C(=O)N1 (stereo not drawn) | < 100
